This passage reports inhibition and melting point results from US7132546B2, “Aniline derivatives or salts thereof and cytokine production inhibitors containing the same” (Ishihara Sangyo Kaisha, Ltd., priority 2000, dated 2006).

Data set [1] concerns interleukin 5 (IL-5) production. The data set is described as follows: Cytokine production inhibitory effect: IL-5 production by murine spleen cells treated with anti-mouse CD3 antibody and IL-2 (ELISA). It is filed as cell-based, Balb/c mice. The settings on record: test compound 100 ppm, anti-CD3 antibody + IL-2, 40 to 48 hours, read-out: IL-5 production inhibitory ratio (%). As for the experimental part:
(§1) Murine spleen cells were treated with anti-mouse CD3 antibody and IL-2 to induce cytokine production. The test compounds were added to the cytokine production system to evaluate their inhibitory effect. Namely, anti-mouse CD3 antibody adjusted to from 10 to 20 μg/ml with borate buffered physiological saline (pH 8.5) was pipetted into a 96-well cell culture plate in an amount of 50 μl/well and left to stand at 4° C. for 18 hours. The unreacted solution was removed, washing with Hank's buffer solution was carried out once, and IL-2 adjusted to 10 ng/ml with a RPMI liquid containing 10% fetal bovine serum (FCS) was pipetted in an amount of 50 μl/well. For the negative control group, a solution alone without anti-CD3 antibody nor IL-2 was applied. Then, the diluted solution of each of the test compounds (concentration: 100 ppm unless otherwise specified) was pipetted in an amount of 50 μl/well, and a cell suspension of 1×10^7 cells/ml, prepared from spleen of Balb/c mice (female, 7 to 10 week old) was pipetted thereinto in an amount of 100 μl/well. After cultivation in an incubator (37° C., 5% carbon dioxide gas) for from 40 to 48 hours, the culture supernatant was recovered to measure the cytokine production amount by ELISA method.
(§2) With respect to interleukin 5 (IL-5) as a typical Th2 type cytokine and interferon γ (IFN-γ) as a typical Th1 type cytokine, measurements were carried out by the following methods, respectively. Namely, quantitative determination of IL-5 was carried out by the following ELISA method. First, rat anti-mouse IL-5 antibody (Endogen Code No. MM-550C) as a primary antibody was diluted with carbonate buffer solution (pH 9.5) to 1 μg/ml, and spread in a 96 well plate (IWAKI, Code No. 3860-096) in an amount of 50 μl/well for coating at 4° C. overnight (16 to 24 hours). Then, the plate was subjected to blocking at 37° C. for 2 hours by phosphate buffered physiological saline containing 10% FCS (pH 7.2) (blocking buffer solution) (250 μl/well). The plate was washed with PBS (washing buffer) containing 0.05% Tween 20 (Nacalai Tesque, Code No. 281-51) four times, and a diluted liquid of the culture supernatant was spread in an amount of 50 μl/well, followed by incubation at room temperature for 1 hour. For preparation of a standard line, recombinant mouse IL-5 (R&D systems, Code No. 405-ML) was employed. The plate was washed with a washing buffer four times, and biotin-labeled rat anti-mouse IL-5 antibody (Pharmingen, Code No. 18062D) as a secondary antibody diluted to 0.5 μg/ml with a blocking buffer containing 0.05% Tween 20 was added thereto (50 μl/well), followed by incubation at room temperature for 1 hour. The plate was washed with a washing buffer four times, strept avidin-labeled peroxidase (ProZyme, Code No. CJ30H001) diluted 800 times with a blocking buffer containing 0.05% Tween 20 was added thereto (50 μl/well), followed by reaction at room temperature for 15 minutes. The plate was washed with a washing buffer four times, and a […] substrate solution (SIGMA, Code No. T-8665) was added thereto in an amount of 100 μl/well for color developing for from 10 to 20 minutes. A 1M sulfuric acid solution was added thereto in an amount of 100 μl/well to terminate the reaction, and absorption (wavelength 450 nm) was measured by means of micro plate reader (SPECTRA max, Wako Pure Chemicals Industries, Ltd.). Quantitative determination of IFN-γ was carried out in the same manner as the measurement of IL-5, employing rat anti-mouse IFN-γ antibody (Pharmingen, Code No. 18181D) and biotin labeled rat anti-mouse IFN-γ antibody (Pharmingen, Code NO. 18112D), as a primary antibody and a secondary antibody, respectively. For preparation of a standard line, recombinant mouse IFN-γ (GENZYME, Code No. 3485) was employed. The experiment was carried out in duplicate, and the average of the cytokine production amount was obtained. […]
For orientation: ELISA stands for enzyme-linked immunosorbent assay.

Data set [2] deals with interferon γ (IFN-γ) production. The data set is described as follows: Cytokine production inhibitory effect: IFN-γ production by murine spleen cells treated with anti-mouse CD3 antibody and IL-2 (ELISA). It is filed as cell-based, Balb/c mice. The settings on record: test compound 100 ppm, anti-CD3 antibody + IL-2, 40 to 48 hours, read-out: IFN-γ production inhibitory ratio (%). The method, then:
as §1, §2

What is called melting point is the temperature, or range, at which the solid turns liquid. In turn, `CSc1ccc(NC(=O)c2cc([N+](=O)[O-])ccc2Cl)cc1` [compound 29] returned a melting point of 162 °C. The inhibition at 100 ppm in data set [1] was 98%. For the same compound, the inhibition at 100 ppm in data set [2] came out at 100%.
The compound `O=C(Nc1ccc(C(F)(F)F)cc1)c1cc([N+](=O)[O-])ccc1Cl` [compound 30] displayed a melting point of 176 °C. For the same compound, the inhibition at 100 ppm in data set [1] was 100%. The inhibition at 100 ppm in data set [2] worked out at 100%.
The compound `Cc1cc(Oc2ccc(C(F)(F)F)cc2)ccc1NC(=O)c1cc([N+](=O)[O-])ccc1Cl` [compound 31] showed a melting point of 196 °C. Besides, in data set [1], the inhibition at 100 ppm is 62%. In addition, the inhibition at 100 ppm in data set [2] amounted to 63%.
The like results for `O=C(Nc1ccc(Sc2ccc(C(F)(F)F)cn2)cc1)c1cc([N+](=O)[O-])ccc1Cl` [compound 32] were, in that order, 189 °C, 99% and 98%.
The like results for `O=C(Nc1cccc(C(F)(F)F)c1)c1cc([N+](=O)[O-])ccc1Cl` [compound 33] were, in that order, 168 °C, 100% and 100%.
The like results for `COC(=O)c1cccc(C(=O)Nc2ccc(C34CC5CC(CC(C5)C3)C4)cc2C)c1` [compound 34] were, in that order, 184 °C, 88% and 97%.
In turn, `Cc1cc(C23CC4CC(CC(C4)C2)C3)ccc1NC(=O)c1cccc(C(=O)O)c1` [compound 35] registered a melting point of 232 °C. For the same compound, in data set [1], the inhibition at 100 ppm was 100%. In addition, the inhibition at 100 ppm in data set [2] worked out at 100%.
`Cc1cc(C23CC4CC(CC(C4)C2)C3)ccc1NC(=O)c1cc([N+](=O)[O-])ccc1C` [compound 36] had a melting point of 198 °C. In addition, the inhibition at 100 ppm in data set [1] amounted to 81%. In data set [2], the inhibition at 100 ppm turned out to be 85%.
For `O=C(Nc1ccccc1Oc1ccccc1)c1cc([N+](=O)[O-])ccc1Cl` [compound 37], in that order: 110 °C, 97% and 100%.
For `O=C(Nc1ccccc1-c1ccccc1)c1cc([N+](=O)[O-])ccc1Cl` [compound 38], in that order: 154 °C, 86% and 93%.
Compound `O=C(Nc1cccc(Oc2ccccc2)c1)c1cc([N+](=O)[O-])ccc1Cl` [compound 40] came in with a melting point of 103 °C. Moreover, the inhibition at 100 ppm in data set [1] is 100%. The inhibition at 100 ppm in data set [2] amounted to 100%.
In the case of `Cc1cc(C23CC4CC(CC(C4)C2)C3)ccc1NS(=O)(=O)c1cc([N+](=O)[O-])ccc1C` [compound 44], the melting point was determined as 241 °C. In addition, in data set [1], the inhibition at 100 ppm was found to be 93%. Also, in data set [2], the inhibition at 100 ppm is 100%.
Turning to `Cc1cc(C23CC4CC(CC(C4)C2)C3)ccc1NC(=O)c1cc([N+](=O)[O-])ccc1F` [compound 45], the melting point came out at 198 °C. Besides, in data set [1], the inhibition at 100 ppm was determined as 99%. Moreover, the inhibition at 100 ppm in data set [2] was 99%.
In the case of `COC(=O)c1cc(C(=O)Nc2ccc(C34CC5CC(CC(C5)C3)C4)cc2C)cc([N+](=O)[O-])c1` [compound 47], the melting point was found to be 178 °C. Also, the inhibition at 100 ppm in data set [1] worked out at 89%. The inhibition at 100 ppm in data set [2] came to 95%.
The compound `O=[N+]([O-])c1ccc(Cl)c(S(=O)(=O)Nc2ccc(Oc3ccccc3)cc2)c1` [compound 49] returned a melting point of 148 °C. For the same compound, in data set [1], the inhibition at 100 ppm amounted to 100%. Further, the inhibition at 100 ppm in data set [2] was found to be 100%.
The compound `Cc1cc(C23CC4CC(CC(C4)C2)C3)ccc1NC(=O)c1cccc(C#N)c1` [compound 50] came in with a melting point of 83 °C. Further, the inhibition at 100 ppm in data set [1] was 95%. For the same compound, the inhibition at 100 ppm in data set [2] was 98%.
For `O=C(c1ccccc1)c1ccc(NC(=O)c2cc([N+](=O)[O-])ccc2Cl)cc1` [compound 51], in that order: 226 °C, 99% and 100%.
The like results for `COc1ccc([N+](=O)[O-])c(OC)c1C(=O)Nc1ccc(C23CC4CC(CC(C4)C2)C3)cc1C` [compound 52] were, in that order, 115 °C, 75% and 96%.
For `Cc1cc(C23CC4CC(CC(C4)C2)C3)ccc1NC(=O)c1c(Cl)ccc([N+](=O)[O-])c1Cl` [compound 53], in that order: 224 °C, 94% and 93%.
For `Cc1cc(C23CC4CC(CC(C4)C2)C3)ccc1NC(=O)c1ccc([N+](=O)[O-])cc1Cl` [compound 55], the melting point came out at 200 °C. The inhibition at 100 ppm in data set [1] was determined as 96%. Besides, in data set [2], the inhibition at 100 ppm came to 100%.
Compound `Cc1cc(C23CC4CC(CC(C4)C2)C3)ccc1NC(=O)c1cc([N+](=O)[O-])ccc1O` [compound 56] returned a melting point of 131 °C. Also, the inhibition at 100 ppm in data set [1] is 100%. In addition, the inhibition at 100 ppm in data set [2] was found to be 100%.
In turn, `Cc1cc(C23CC4CC(CC(C4)C2)C3)ccc1NC(=O)c1cc(Cl)ccc1[N+](=O)[O-]` [compound 57] displayed a melting point of 233 °C. Further, the inhibition at 100 ppm in data set [1] stood at 90%. For the same compound, the inhibition at 100 ppm in data set [2] stood at 98%.
The like results for `Cc1cc(C23CC4CC(CC(C4)C2)C3)ccc1NC(=O)c1cccc(Cl)c1[N+](=O)[O-]` [compound 58] were, in that order, 256 °C, 97% and 96%.
For `O=C(Nc1ccc(Sc2ncc(C(F)(F)F)cc2Cl)cc1)c1cc([N+](=O)[O-])ccc1Cl` [compound 59], in that order: 174 °C, 100% and 100%.
The like results for `Cc1cc(C23CC4CC(CC(C4)C2)C3)ccc1NC(=O)c1cccc([N+](=O)[O-])c1Cl` [compound 60] were, in that order, 222 °C, 96% and 93%.
Compound `Cc1cc(C23CC4CC(CC(C4)C2)C3)ccc1NC(=O)c1ccccc1` [compound 61] returned a melting point of 198 °C. Also, the inhibition at 100 ppm in data set [1] was found to be 79%. Besides, in data set [2], the inhibition at 100 ppm was 89%.
The like results for `Cc1cc(C23CC4CC(CC(C4)C2)C3)ccc1NC(=O)c1ccc(Cl)c([N+](=O)[O-])c1` [compound 62] were, in that order, 111 °C, 100% and 100%.
As to `O=C(Nc1ccc(Oc2ccccn2)cc1)c1cc([N+](=O)[O-])ccc1Cl` [compound 63], the melting point was 198 °C. Further, the inhibition at 100 ppm in data set [1] was determined as 100%. For the same compound, the inhibition at 100 ppm in data set [2] was 100%.
As to `O=C(Nc1ccc(Oc2ncc(C(F)(F)F)cc2Cl)cc1)c1cc([N+](=O)[O-])ccc1Cl` [compound 64], the melting point amounted to 203 °C. The inhibition at 100 ppm in data set [1] was determined as 98%. Also, the inhibition at 100 ppm in data set [2] was found to be 99%.
With `O=C(Nc1ccc(N2CCOCC2)cc1)c1cc([N+](=O)[O-])ccc1Cl` [compound 66], the melting point amounted to 195 °C. The inhibition at 100 ppm in data set [1] was determined as 95%. Further, the inhibition at 100 ppm in data set [2] came out at 91%.
